# Laboratory results published in ChEMBL document CHEMBL1649295, “Pharmacokinetic-pharmacodynamic modeling of the in vitro activities of oxazolidinone antimicrobial agents against methicillin-resistant Staphylococcus aureus” (Antimicrob Agents Chemother, 2009).
# Activity calls are given as the source filed them. The rule behind the calls is not given here.
# How the values were obtained:
# Staphylococcus aureus [1] = test: Antibacterial activity against methicillin-resistant Staphylococcus aureus OC2878 assessed as inhibition of bacterial regrowth at 16 times MIC after 24 hrs by dynamic time kill study; format: functional, organism-based
# Staphylococcus aureus [2] = test: Antibacterial activity against methicillin-resistant Staphylococcus aureus OC2878 by broth macrodilution method
# Staphylococcus aureus [3] = test: Antibacterial activity against methicillin-resistant Staphylococcus aureus OC2878 assessed as log reduction in bacterial count at 8 times MIC after 24 hrs by time kill study; format: functional
# [4] = Chemical stability of the compound assessed as compound degradation at 16 times MIC after 24 hrs by RP-HPLC analysis; format: physicochemical
# Staphylococcus aureus [5] = test: Antibacterial activity against methicillin-resistant Staphylococcus aureus OC2878 assessed as inhibition of bacterial regrowth at 16 times MIC after 8 hrs by dynamic time kill study; format: functional, organism-based
SMILES,inhibition (Staphylococcus aureus [1]),MIC (Staphylococcus aureus [2]),log10cfu (Staphylococcus aureus [3]),Stability [4],inhibition (Staphylococcus aureus [5])
CC(=O)NC[C@H]1CN(c2ccc(N3Cc4cn(C)nc4C3)c(F)c2)C(=O)O1,Active,0.5 mg/L,2,,
CC(=O)NC[C@H]1CN(c2ccc(N3CCOCC3)c(F)c2)C(=O)O1 [LINEZOLID],,1 mg/L,2,Stable,inactive
